Measurements published in article PMC10632405, “A novel in silico scaffold-hopping method for drug repositioning in rare and intractable diseases” (Scientific Reports, 2023).

Biological target: PAK5 (Homo sapiens, UniProt Q9P286)
Settings: read-out: % inhibition at 50 nM

Sequence of PAK5 (Q9P286 whole entry): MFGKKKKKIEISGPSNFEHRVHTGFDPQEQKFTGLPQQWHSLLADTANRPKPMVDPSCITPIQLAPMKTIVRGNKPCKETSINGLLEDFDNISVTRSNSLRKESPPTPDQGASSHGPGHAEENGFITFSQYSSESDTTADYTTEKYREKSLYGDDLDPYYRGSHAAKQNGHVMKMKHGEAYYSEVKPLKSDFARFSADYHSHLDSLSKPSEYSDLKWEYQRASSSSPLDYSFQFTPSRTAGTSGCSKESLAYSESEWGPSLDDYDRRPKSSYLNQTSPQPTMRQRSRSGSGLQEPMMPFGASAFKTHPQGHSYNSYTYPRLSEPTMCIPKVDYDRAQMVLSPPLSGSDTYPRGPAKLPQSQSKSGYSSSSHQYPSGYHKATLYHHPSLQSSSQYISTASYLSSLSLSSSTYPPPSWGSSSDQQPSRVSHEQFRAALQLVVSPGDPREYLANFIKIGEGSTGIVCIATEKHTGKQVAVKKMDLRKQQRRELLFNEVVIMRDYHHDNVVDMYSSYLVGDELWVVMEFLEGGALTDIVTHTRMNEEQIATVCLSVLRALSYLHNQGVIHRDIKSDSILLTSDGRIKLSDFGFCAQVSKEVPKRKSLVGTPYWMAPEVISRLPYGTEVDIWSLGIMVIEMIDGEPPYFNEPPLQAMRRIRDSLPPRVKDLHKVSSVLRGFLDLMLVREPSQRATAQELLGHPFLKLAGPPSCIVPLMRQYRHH

NC(=O)c1cnc(N[C@@H]2CCCC[C@@H]2N)nc1Nc1cccc(-n2nccn2)c1 [BIIB-057] showed an inhibition at 0.05 µM of over 50%.
